# From paper PMC12292521, “Discovery of a Potent Antimicrobial Peptide Through Rational Design: A New Frontier in Pathogen Control” (Biomolecules, 2025)
# Peptide text beside a SMILES is read from it.
# Tests used:
# [1] = system: Pseudomonas aeruginosa ATCC 15442; assay: Quantitative suspension test, bactericidal activity, BS EN 1276:2019; type: cell-based; set-up: key to Bactericidal activity verdict: Active: For bacteria: ACTIVE if log R ≥ 5 according to BS EN 1276:2019; Not active: For bacteria: ACTIVE if log R ≥ 5 according to BS EN 1276:2019; details: 60 min, 37 °C, BSA 0.3 g/L
# Source text: (§1) The method is based on the suspension test according to BS EN 1276:2019, which specifies a quantitative suspension analysis for the evaluation of the bactericidal activity of chemical disinfectants and antiseptics used in food, industrial, domestic, and institutional areas against a panel of microorganisms under conditions that more closely simulate practical use. Briefly, S. aureus ATCC 6538, P. aeruginosa ATCC 15442, and Staphylococcus epidermidis ATCC 12228 were used as test organisms at a bacterial concentration of 1.0 × 10^8 colony-forming units (CFU) per mL (CFU/mL). In the test, BSA (Bovine Serum Albumin) (0.3 g/L) was used as an interfering substance to mimic clean conditions. […] The reaction mixture was incubated at 37 °C for 60 min before transferring each sample to a tube containing a neutralizer solution consisting of 30 g/L polysorbate 80, 1 g/L sodium thiosulfate, 3 g/L lecithin, 1 g/L tryptone, 8.5 g/L NaCl, 100 mL/L phosphate buffer and water. The negative control (untreated cells) was prepared using PBS instead of biocides. The solutions were then plated onto Tryptone Soy Agar (TSA) and incubated at 37 °C for 48 h to determine the logarithmic CFU/mL reduction, according to the following Equation:(2) log R = log (N0) − log (Na) where R refers to the reduction in viability, N refers to the number of CFU/mL in the test mixture at the beginning of the contact time, and Na refers to the number of CFU/mL in the test mixture at the end of the contact time. […] The test method and the minimum requirements for fungicidal activity of chemical disinfectant and antiseptic products were performed according to BS EN 1650:2019. The fungicidal activity was studied using the vegetative cells of Candida albicans ATCC 10231 and the spores of Aspergillus brasiliensis ATCC 16404 as test organisms. […] The mixture was maintained at 37 °C for a contact time of 60 min. At the end of this contact time, an aliquot was taken, and the fungicidal activity was immediately neutralized with a solution consisting of 30 g/L polysorbate 80, 1 g/L sodium thiosulfate, 3 g/L lecithin, 1 g/L tryptone, 8.5 g/L NaCl, 100 mL/L phosphate buffer and water. The samples were then plated onto malt extract agar (MEA) and incubated at 30 °C for 48 h to determine the numbers of surviving fungi as the logarithmic CFU/mL reduction, calculated according to Equation (2).
# [2] = system: Staphylococcus epidermidis ATCC 12228; assay: as above; type: cell-based; set-up: key to Bactericidal activity verdict: Active: For bacteria: ACTIVE if log R ≥ 5 according to BS EN 1276:2019; Not active: For bacteria: ACTIVE if log R ≥ 5 according to BS EN 1276:2019; details: 60 min, 37 °C, BSA 0.3 g/L
# Source text: as §1
# [3] = system: P. aeruginosa biofilm; assay: Antibiofilm activity (crystal violet); type: cell-based, Pseudomonas aeruginosa; details: RKW at ½ and ¼ MIC (10 and 5 μM); OD 630 nm vs control; three independent experiments; ANOVA p < 0.05; greatest inhibition at ¼ MIC
# Experimental: (§2) Therefore, the minimum inhibitory concentration (MIC) and MBC were evaluated. […] Subsequently, the antibiofilm activity of the peptide was tested according to Festa et al.. Specifically, two different concentrations of peptide were used, corresponding to ½ and ¼ of the estimated MIC value, which guarantee the optimal bacterial growth conditions necessary to allow biofilm production. Biofilm production (%) was calculated based on Optical Density (measured at 630 nm) outputs, compared to the control group.
# (§3) To compare the percentages of biofilm production across different samples, a one-way analysis of variance (ANOVA) was conducted using Prism v. 10.0 (GraphPad, Graph-Pad Software, La Jolla, CA, USA). Significant differences between sample pairs were identified with Tukey’s post hoc test (p < 0.05).
# [4] = system: S. aureus (MRSA) biofilm; assay: Antibiofilm activity (crystal violet); type: cell-based, Staphylococcus aureus; details: RKW at ½ and ¼ MIC (25 and 12.5 μM); OD 630 nm vs control; three independent experiments; ANOVA p < 0.01; greatest inhibition at ¼ MIC
# Experimental: as §2, §3
compound,measurement,setting,value
CC[C@H](C)[C@H](NC(=O)[C@H](Cc1c[nH]c2ccccc12)NC(=O)[C@H](CCCCN)NC(=O)[C@@H](N)CCCNC(=N)N)C(=O)N[C@@H](CC(C)C)C(=O)N[C@@H](CCCCN)C(=O)N[C@@H](Cc1c[nH]c2ccccc12)C(=O)N[C@@H](CC(C)C)C(=O)N[C@@H](CCCNC(=N)N)C(=O)N[C@H](C(=O)N[C@@H](Cc1c[nH]c2ccccc12)C(=O)N[C@@H](CCCCN)C(=O)N[C@@H](CCCCN)C(N)=O)[C@@H](C)O [RKW] (H-RKWILKWLRTWKK-NH2; N-terminus assumed),Bactericidal activity verdict,[1]; RKW 5 µM,Active
same,Na (CFU/mL at the end of the contact time),[1]; RKW 5 µM,< 1.40 × 10^2 CFU/mL
same,Bactericidal activity verdict,[1]; RKW 10 µM,Active
same,Na (CFU/mL at the end of the contact time),[1]; RKW 10 µM,< 1.40 × 10^2 CFU/mL
same,Bactericidal activity verdict,[1]; RKW 20 µM,Active
same,Na (CFU/mL at the end of the contact time),[1]; RKW 20 µM,< 1.40 × 10^2 CFU/mL
same,Bactericidal activity verdict,[1]; RKW 50 µM,Active
same,Na (CFU/mL at the end of the contact time),[1]; RKW 50 µM,< 1.40 × 10^2 CFU/mL
same,Bactericidal activity verdict,[1]; RKW 100 µM,Active
same,Na (CFU/mL at the end of the contact time),[1]; RKW 100 µM,< 1.40 × 10^2 CFU/mL
same,Bactericidal activity verdict,[2]; RKW 5 µM,Na = 3.70 × 10^2 log Na = 2.57 log R = 4.71 Not active
same,Na (CFU/mL at the end of the contact time),[2]; RKW 5 µM,3.70 × 10^2 CFU/mL
same,Bactericidal activity verdict,[2]; RKW 10 µM,Na = 2.40 × 10^2 log Na = 2.38 log R = 4.90 Not active
same,Na (CFU/mL at the end of the contact time),[2]; RKW 10 µM,2.40 × 10^2 CFU/mL
same,Bactericidal activity verdict,[2]; RKW 20 µM,Na = 1.60 × 10^2 log Na = 2.20 log R = 5.08 Active
same,Na (CFU/mL at the end of the contact time),[2]; RKW 20 µM,1.60 × 10^2 CFU/mL
same,Bactericidal activity verdict,[2]; RKW 50 µM,Na = 1.60 × 10^2 log Na = 2.20 log R = 5.08 Active
same,Na (CFU/mL at the end of the contact time),[2]; RKW 50 µM,1.60 × 10^2 CFU/mL
same,Bactericidal activity verdict,[2]; RKW 100 µM,Na = 1.60 × 10^2 log Na = 2.20 log R = 5.08 Active
same,Na (CFU/mL at the end of the contact time),[2]; RKW 100 µM,1.60 × 10^2 CFU/mL
same,Biofilm production,[3],significantly inhibited the biofilm production
same,Biofilm production,[4],significantly inhibited the biofilm production
